The test system of data set [1] is C6. Put plainly: Cytotoxicity against rat C6 cells assessed as reduction in cell viability incubated for 48 hrs by trypan blue dye based assay. The format is functional. Conditions: C6, 48 h.
Data set [2] can be described thus: Antitumor activity against rat C6/ACNUcells implanted in Wistar rat assessed as increase in life span at 250 mg/kg relative to control. The format is functional, C6/ACNU.
In data set [3] the test system is C6. Put plainly: Antitumor activity against rat C6 cells implanted in Wistar rat assessed as increase in life span at 250 mg/kg relative to control. In kind it is functional.
The test system of the next data set is CCRF-CEM. In words: Cytotoxicity against human CCRF-CEM cells assessed as reduction in cell viability incubated for 72 hrs by resazurin dye based analysis. In kind it is functional. (The colour change of resazurin is a common sign of viable cells or microbes.)
Data set [4] can be described thus: Cytotoxicity against human GBM cells harboring EGFR mutation assessed as reduction in cell viability incubated for 72 hrs by resazurin dye based assay. In kind it is functional.
Data set [5] can be described thus: Cytotoxicity against rat 9L/ACNU cells assessed as reduction in cell viability incubated for 24 hrs by tryphan-blue dye based assay. In kind it is functional.
For a further data set, the system named is ADR5000 cell line. Put plainly: Cytotoxicity against human CEM/ADR5000 cells assessed as reduction in cell viability incubated for 72 hrs by resazurin dye based analysis. The conditions noted are these: ADR5000, 72 h. In kind it is functional.
The subject of the next data set is 9L. Put plainly: Cytotoxicity against rat 9L cells assessed as reduction in cell viability incubated for 24 hrs by tryphan-blue dye based assay. In kind it is functional.
The nature of data set [6]: Cytotoxicity against human U-87 MG cells harboring EGFR mutation assessed as reduction in cell viability incubated for 72 hrs by resazurin dye based assay. The format is functional, U-87MG ATCC.
Data set [7] can be described thus: Antiproliferative activity against human D-54MG cells assessed as inhibition of cell growth measured for 72 hrs. In kind it is functional, cell-based. Conditions: D54MG.
Data set [8] deals with U-251. Put plainly: Antiproliferative activity against human U-251MG cells assessed as inhibition of cell growth measured for 72 hrs. The format is functional, cell-based. The conditions noted are these: U-251, 72 h.
Data set [9] has as its system U-87 MG. Put plainly: Antiproliferative activity against human U-87 MG cells assessed as inhibition of cell growth measured for 72 hrs. In kind it is functional, cell-based, U-87MG ATCC.
The subject of data set [10] is A 172. In words: Antiproliferative activity against human A-172 cells assessed as inhibition of cell growth measured for 72 hrs. In kind it is functional, cell-based. Conditions: A 172, 72 h.
The test system of data set [11] is T98G. Put plainly: Antiproliferative activity against human T98G cells assessed as inhibition of cell growth measured for 72 hrs. The format is functional, cell-based.
In data set [12] the test system is U-251. Put plainly: Antiproliferative activity against human U-251MG cells assessed as reduction in cell growth measured at 10 uM for 48 hrs by MTT assay relative to control. Set-up: scale not given: the % may be the effect or the level left. In kind it is functional. In general terms: Tetrazolium dyes change colour on reduction, which living cells bring about.

In data set [13] the test system is U-87 MG. Put plainly: Cytotoxicity against human U-87 MG cells assessed as reduction in cell viability measured after 24 hrs by MTT assay. The format is functional, cell-based, U-87MG ATCC.
A short description of data set [14]: Toxicity in human U-87MG cells xenografted in nude mouse assessed as lethal dose at 10 mg/kg, ip administered once daily for 20 days relative to control. The format is organism-based. Conditions: in vivo, time 20 day.
In data set [15] the test system is A 172. Put plainly: Cytotoxicity against human A-172 cells assessed as reduction in cell viability measured after 24 hrs by MTT assay. The format is functional, cell-based. The conditions noted are these: A 172, 24 h.
For data set [16], the system named is U-251. In words: Cytotoxicity against human U-251MG cells assessed as reduction in cell viability measured after 24 hrs by MTT assay. In kind it is functional, cell-based. Conditions: U-251, 24 h.
A further data set has as its system U-118-MG. Put plainly: Cytotoxicity against human U-118-MG cells assessed as reduction in cell viability measured after 24 hrs by MTT assay. In kind it is functional, cell-based.
Another data set has as its system MRC5. In words: Cytotoxicity against human MRC5 cells assessed as reduction in cell viability incubated for 72 hrs by neutral red uptake assay. The conditions noted are these: MRC5, 72 h. The format is functional, cell-based.
For data set [17], the system named is U-87 MG. Put plainly: Cytotoxicity against human U-87 MG cells assessed as reduction in cell viability in presence of Jerantinine B incubated for 72 hrs by neutral red uptake assay. In kind it is functional, cell-based, U-87MG ATCC.
Data set [18] relates to U-87 MG. In words: Cytotoxicity against human U-87 MG cells assessed as reduction in cell viability incubated for 72 hrs by neutral red uptake assay. The format is functional, cell-based, U-87MG ATCC.
The subject of data set [19] is U-87 MG. Put plainly: Synergistic antiproliferative activity against human U-87 MG cells assessed as combination index at 10 uM incubated for 48 hrs in presence of 1.5 microg/ml Delta-Tocotrienol. In kind it is functional, U-87MG ATCC.
The subject of data set [20] is U-87 MG. In words: Cytotoxicity against human U-87 MG cells assessed as reduction in cell viability in presence of Delta-Tocotrienol incubated for 72 hrs by neutral red uptake assay. The format is functional, cell-based, U-87MG ATCC.
For data set [21], the target named is T1, Dual specificity tyrosine-phosphorylation-regulated kinase 1A (Homo sapiens, UniProt Q13627). In words: Inhibition of DYRK1A (unknown origin) by TR-FRET assay.
Data set [22] concerns U-87 MG. Put plainly: Antitumor activity against human U-87 MG cells xenografted in mouse model assessed as reduction in tumor growth at 15 mg/kg, ip administered once daily for 5 days relative to control. In kind it is functional, U-87MG ATCC. Set-up: scale not given: the % may be the effect or the level left. The conditions noted are these: time 5 day. (In general: In xenograft studies the graft and the host belong to different species.)

Data set [23] relates to U-251. Put plainly: Induction of apoptosis in human U-251MG cells assessed as increase in PARP cleavage at 12.5 to 100 uM incubated for 24 hrs by Western blot analysis. The format is functional. Conditions: dose 12.5-100 µM.
In data set [24] the test system is U-87 MG. Put plainly: Antitumor activity against human U-87 MG cells xenografted in mouse model assessed as reduction in tumor growth at 60 mg/kg, ip administered once daily for 5 days relative to control. In kind it is functional, U-87MG ATCC. On the set-up: scale not given: the % may be the effect or the level left. Conditions: time 5 day.
In data set [25] the target is T1, Dual specificity tyrosine-phosphorylation-regulated kinase 1A. In words: Inhibition of DYRK1A (unknown origin) incubated for 2 hrs in presence of [gamma-33P]-ATP by radioactivity based assay.
Data set [26] relates to U-87 MG. Put plainly: Antiproliferative activity against human U-87 MG cells assessed as reduction in cell viability incubated for 72 hrs by Presto-Blue cell viability assay. The format is functional, cell-based, U-87MG ATCC.
The subject of another data set is H4. In words: Antiproliferative activity against human H4 cells assessed as reduction in cell viability incubated for 72 hrs by Presto-Blue cell viability assay. The conditions noted are these: H4, 72 h. The format is functional, cell-based.
Data set [27] is described as follows: Antiproliferative activity against human GSC#1 cells assessed as reduction in cell growth incubated for 72 hrs by MTS assay. Conditions: GSC#1, 72 h. The format is functional, cell-based.
Data set [28] has as its system U-87 MG. In words: Antiproliferative activity against human U-87 MG cells assessed as reduction in cell growth incubated for 72 hrs by MTS assay. In kind it is functional, cell-based, U-87MG ATCC.
The test system of data set [29] is T98G. Put plainly: Antiproliferative activity against human T98G cells assessed as reduction in cell growth incubated for 72 hrs by MTS assay. The format is functional, cell-based.
Data set [30] is described as follows: Antiproliferative activity against human U373 MG cells assessed as reduction in cell growth measured for 72 hrs by MTT assay. In kind it is functional, cell-based, U-373MG ATCC.
For data set [31], the system named is U-251. In words: Cytotoxicity against human U-251MG cells assessed as reduction in cell growth measured for 48 hrs by MTT assay. Conditions: U-251, 48 h. In kind it is functional, cell-based.
In data set [32] the test system is U-87 MG. In words: Cytotoxicity against human U-87 MG cells assessed as reduction in cell growth measured for 48 hrs by MTT assay. The format is functional, cell-based, U-87MG ATCC.
Data set [33] concerns U-251. In words: Antitumor activity against human U-251MG cells xenografted in BALB/c nude mouse assessed as reduction in tumor growth at 8 mg/kg, ip administered once daily and measured after 28 days relative to control. The format is functional. The conditions noted are these: U-251, 672 h, time 28 day, read-out: TGI.
Data set [34] relates to U-251. Put plainly: Antitumor activity against human U-251MG cells xenografted in BALB/c nude mouse assessed as reduction in tumor growth at 4 mg/kg, ip administered once daily and measured after 28 days relative to control. In kind it is functional. Conditions: U-251, 672 h, time 28 day, read-out: TGI.

≈ marks a conversion by molar mass, not a printed value.

`COc1cc(C2(O)C(=O)N=C(N)N2C)ccc1O` (stereo not given): the 50% inhibitory concentration (IC50) (commonly the midpoint of a concentration-inhibition curve) in the data set with C6 [1] is 155 µM.

`COC(=O)[C@H]1[C@H]2C[C@@H]3c4[nH]c5cc(OC)ccc5c4CCN3C[C@H]2C[C@@H](OC(=O)c2cc(OC)c(OC)c(OC)c2)[C@@H]1OC` [RESERPINE]: the Activity in data set [2] turned out to be 142%; in the data set with C6 [3] it was 143%. Also, the half-inhibitory concentration (IC50) in the data set with CCRF-CEM was 14.5 µM; in data set [4], 88 µM; in data set [5], 2 µM; in the data set on ADR5000 cell line it was 13.2 µM; with 9L it was 1 µM; in data set [6], 9.15 µM.

With `O=C(/C=C/c1ccc(O)cc1)NCCc1c[nH]c2ccc(O)cc12` [N-P-COUMAROYL SEROTONIN], the IC50 is 81 µM in data set [7]; 77 µM with U-251 [8]; 48 µM in the data set with U-87 MG [9]; 62 µM with A 172 [10]; 68 µM in the data set on T98G [11].

`Clc1ccccc1C(c1ccccc1)(c1ccccc1)n1ccnc1` [CLOTRIMAZOLE]: the Activity in the data set on U-251 [12] came out at 70%.

For `COc1cc2c(cc1OC)[C@@]13CCN4CC5=CCO[C@H]6CC(=O)N2[C@H]1[C@H]6[C@H]5C[C@H]43` [BRUCINE], the half-inhibitory concentration (IC50) with U-87 MG [13] came out at 604 µM; in the data set with A 172 [15], 527 µM; with U-251 [16], 614 µM; in the data set with U-118-MG it was 536 µM. Also, in data set [14], the LD50 (usually the dose expected to kill half of the subjects tested) at 480 h was determined as 13.2 mg/kg.

For the compound `CC[C@@]12CC(C(=O)OC)=C3Nc4cc(OC)c(O)cc4[C@@]34CCN(C[C@@H]3O[C@@H]31)[C@@H]24` [JERANTININE B], the 50% inhibitory concentration (IC50) with MRC5 is 2.83 µg/mL (≈ 7.1 µM); in the data set with U-87 MG [17], 0.74 µg/mL; with U-87 MG [18], 0.74 µg/mL (≈ 1.86 µM); in the data set with U-87 MG [20], 0.19 µg/mL. Moreover, the CI with U-87 MG [19] is 0.85.

For `Cc1nccc2c1[nH]c1cc(O)ccc12`, the concentration for half-maximal inhibition (IC50) came out at 0.07 µM in [21], 0.016 µM in data set [25], 19.1 µM in the data set on U-87 MG [26] and 10.9 µM in the data set on H4. In addition, the results for the Activity with U-87 MG [22], in the data set on U-251 [23] and in the data set with U-87 MG [24] were 28.2%, 486% and 38.1%, respectively.

Regarding `CC[C@]12C=CC(CC(C)=O)N3CC[C@]4(C(=C(C(=O)OC)C1)Nc1ccccc14)[C@@H]32` (stereo not given in full), the IC50 was found to be 1.3 µM in [27], 1.7 µM in the data set on U-87 MG [28] and 4.3 µM in the data set with T98G [29].

Take `O=C1NC(=O)c2c1c1[nH]cnc1c1[nH]c3ccccc3c21` [GRANULATIMIDE]: the IC50 in data set [30] turned out to be 6 µM.

In the case of `c1ccc2c(c1)[nH]c1c2cc[n+]2cc3c(cc12)CCCC3`, the IC50 in the data set with U-251 [31] was found to be 4.98 µM; in the data set with U-87 MG [32], 4.71 µM. Moreover, in the data set with U-251 [33], the inhibition in vivo at 8 mg/kg came to 58.9%. Besides, the inhibition in vivo at 4 mg/kg with U-251 [34] came out at 49.5%.

Source of the values: ChEMBL document CHEMBL6115010, “Targeting glioma with heteroaromatic alkaloids: A review of potential therapeutics” (Bioorg Med Chem, 2025).
